Assay results taken from ChEMBL document CHEMBL1201862, “PubChem BioAssay data set” (2004).
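Dose response: 5 concentrations. Exposure: 48 h. Format: 96-well plates. Endpoint: linear interpolation; highest concentration if not reached. The concentration for 50% growth inhibition is given as GI50.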 Calls of active or inactive are those of the source. Rule as the data show it: active = GI50 up to about 1.1 µM and inactive = higher.

How the values were obtained:
Assay in all cases: growth of human tumour cells (NCI), 48 h
[1] = system: Malme-3M
[2] = system: DMS-273
[3] = system: UACC-62
[4] = system: SK-OV-3
[5] = system: HT-29
[6] = system: SNB-19
[7] = system: A549
[8] = system: RXF 393
[9] = system: HOP-62
[10] = system: HCT-116
[11] = system: XF498
[12] = system: NCI-H23
[13] = system: HCT-15
[14] = system: CAKI-1
[15] = system: SNB-78
[16] = system: SR
[17] = system: IGROV-1
[18] = system: ACHN
[19] = system: SK-MEL-28
[20] = system: NCI-H226
[21] = system: SF-539
[22] = system: NCI-H460
[23] = system: COLO 205
[24] = system: DLD-1
[25] = system: U-251
[26] = system: CCRF-CEM
[27] = system: SK-MEL-5
[28] = system: LXFL 529
[29] = system: OVCAR-3
[30] = system: SNB-75
[31] = system: SF-268
[32] = system: K562
[33] = system: SF-295
[34] = system: HOP-92
[35] = system: SW-620
[36] = system: SN12C
[37] = system: DMS-114
[38] = system: KM12
[39] = system: SK-MEL-2
[40] = system: UACC-257
[41] = system: RPMI-8226
[42] = system: A498
[43] = system: UO-31
[44] = system: HOP-18
[45] = system: TK-10
[46] = system: OVCAR-8
[47] = system: 786-0
[48] = system: LOX IMVI
[49] = system: RXF 631
[50] = system: HCC 2998
[51] = system: M19-MEL
[52] = system: OVCAR-5
[53] = system: KM-20L2
[54] = system: MOLT-4
[55] = system: EKVX
[56] = system: OVCAR-4
[57] = system: M14
[58] = system: NCI-H522
[59] = system: HL-60

O=c1c2ccccc2c(=O)n2n1-c1cccc(c1)CSSCc1cccc-2c1
GI50 [1]: > 10 µM (inactive)
GI50 [2]: > 10 µM (inactive)
GI50 [3]: > 10 µM (inactive)
GI50 [4]: 52.8 µM (inactive)
GI50 [5]: > 10 µM (inactive)
GI50 [6]: > 10 µM (inactive)
GI50 [7]: > 10 µM (inactive)
GI50 [8]: > 100 µM (inactive)
GI50 [9]: > 10 µM (inactive)
GI50 [10]: > 10 µM (inactive)
GI50 [11]: 62.2 µM (inactive)
GI50 [12]: > 10 µM (inactive)
GI50 [13]: > 10 µM
GI50 [14]: > 10 µM (inactive)
GI50 [15]: 62.1 µM (inactive)
GI50 [16]: > 10 µM (inactive)
GI50 [17]: > 10 µM (inactive)
GI50 [18]: > 10 µM (inactive)
GI50 [19]: > 10 µM (inactive)
GI50 [20]: > 10 µM (inactive)
GI50 [21]: > 10 µM (inactive)
GI50 [22]: > 10 µM (inactive)
GI50 [23]: > 10 µM (inactive)
GI50 [24]: > 10 µM (inactive)
GI50 [25]: 92 µM (inactive)
GI50 [26]: > 10 µM (inactive)
GI50 [27]: > 10 µM (inactive)
GI50 [28]: > 10 µM (inactive)
GI50 [29]: > 10 µM (inactive)
GI50 [30]: > 10 µM (inactive)
GI50 [31]: > 10 µM (inactive)
GI50 [32]: > 10 µM (inactive)
GI50 [33]: 43.4 µM (inactive)
GI50 [34]: 5.9 µM (inactive)
GI50 [35]: > 10 µM (inactive)
GI50 [36]: > 10 µM (inactive)
GI50 [37]: > 10 µM (inactive)
GI50 [38]: > 10 µM (inactive)
GI50 [39]: > 10 µM (inactive)
GI50 [40]: > 10 µM (inactive)
GI50 [41]: > 10 µM (inactive)
GI50 [42]: > 10 µM (inactive)
GI50 [43]: > 10 µM (inactive)
GI50 [44]: > 10 µM (inactive)
GI50 [45]: > 10 µM (inactive)
GI50 [46]: > 10 µM (inactive)
GI50 [47]: 58.3 µM (inactive)
GI50 [48]: > 100 µM (inactive)
GI50 [49]: > 10 µM (inactive)
GI50 [50]: > 10 µM (inactive)
GI50 [51]: > 10 µM (inactive)
GI50 [52]: > 10 µM (inactive)
GI50 [53]: > 100 µM (inactive)
GI50 [54]: > 10 µM (inactive)
GI50 [55]: > 10 µM (inactive)
GI50 [56]: > 10 µM (inactive)
GI50 [57]: > 10 µM (inactive)
GI50 [58]: > 10 µM (inactive)

CC1Nc2ccccc2NC1C=C(C#N)C#N (stereo unspecified)
GI50 [1]: 16.7 µM (inactive)
GI50 [2]: 12.2 µM (inactive)
GI50 [3]: 16.1 µM (inactive)
GI50 [4]: 21.8 µM (inactive)
GI50 [5]: 16.7 µM (inactive)
GI50 [6]: 17.9 µM (inactive)
GI50 [7]: 22.8 µM (inactive)
GI50 [8]: 16.6 µM (inactive)
GI50 [9]: 20.4 µM (inactive)
GI50 [10]: 13.5 µM (inactive)
GI50 [11]: 17.1 µM (inactive)
GI50 [12]: 17.2 µM (inactive)
GI50 [13]: 17.4 µM
GI50 [59]: 1.85 µM (inactive)
GI50 [14]: 14.1 µM (inactive)
GI50 [15]: 15.3 µM (inactive)
GI50 [16]: 5.61 µM (inactive)
GI50 [17]: 18.1 µM (inactive)
GI50 [18]: 18.3 µM (inactive)
GI50 [19]: 16.6 µM (inactive)
GI50 [20]: 17.3 µM (inactive)
GI50 [21]: 13.2 µM (inactive)
GI50 [22]: 19.4 µM (inactive)
GI50 [23]: 18.7 µM (inactive)
GI50 [24]: 14.4 µM (inactive)
GI50 [25]: 16.1 µM (inactive)
GI50 [26]: 2.72 µM (inactive)
GI50 [27]: 17.1 µM (inactive)
GI50 [28]: 13 µM (inactive)
GI50 [29]: 15.8 µM (inactive)
GI50 [30]: 14.6 µM (inactive)
GI50 [31]: 14.7 µM (inactive)
GI50 [32]: 8.32 µM (inactive)
GI50 [33]: 15.5 µM (inactive)
GI50 [34]: 15.1 µM (inactive)
GI50 [35]: 12.2 µM (inactive)
GI50 [36]: 15.6 µM (inactive)
GI50 [37]: 19.8 µM (inactive)
GI50 [38]: 16.5 µM (inactive)
GI50 [39]: 21.3 µM (inactive)
GI50 [40]: > 10 µM (inactive)
GI50 [41]: 4.58 µM (inactive)
GI50 [43]: 15 µM (inactive)
GI50 [44]: 20 µM (inactive)
GI50 [45]: 19.6 µM (inactive)
GI50 [46]: 7.76 µM (inactive)
GI50 [47]: 16 µM (inactive)
GI50 [48]: 11.3 µM (inactive)
GI50 [49]: 11.9 µM (inactive)
GI50 [50]: 18.4 µM (inactive)
GI50 [51]: 15 µM (inactive)
GI50 [52]: 18.9 µM (inactive)
GI50 [53]: 16.3 µM (inactive)
GI50 [54]: 5.96 µM (inactive)
GI50 [55]: 19.5 µM (inactive)
GI50 [56]: 15.9 µM (inactive)
GI50 [57]: 11.9 µM (inactive)
GI50 [58]: 10.9 µM (inactive)
